Laboratory results as given in US8329141B2, “Locoregional internal radionuclide ablation of abnormal tissues” (Board of Regents, The University of Texas System, priority 2004, dated 2012).

Tested on: rat mammary cancer 13762F tumor cells
Assay: In vivo tumor growth after intratumoral injection of radiopharmaceuticals (rat mammary cancer model)
Design: species or system Fischer 344 female rats
Method: The radionuclides YCl3, ^111In—Cl, and ^201Tl—Cl were obtained from a local supplier of radioisotopes, Iso-Tex Diagnostics (Friendswood, Tex.). YCl3 obtained from the supplier was in an acidic preparation with a pH of 2-3, and was subsequently diluted in saline to a final pH of about 4-6 before injection. Initial activities of ^111In—Cl and YCl3 were about 200-500 mCi/ml, and dilution were made with preservative-free saline. YIMA was prepared by co-precipitation, as set forth in U.S. Ser. No. 10/724,027. Briefly, 500 μl of FeCl3 (1 mg Fe/ml) was added to 30 μl of ^90Y chloride (20-40 μCi/30 μl), and either 30 μl of NaOH (1.0 N) or 10 μl of NH4OH (20.0%) was added to the solution to reach a pH of about 7.0 to 9.0. Co-precipitated YIMA radiopharmaceutical macroaggregates were then separated from remaining soluble radionuclides by centrifuging the reactions from 1500 RPM to 3000 RPM×5 minutes, and filtered using a Millipore Nylone (size: 0.45 μm, diameter: 13 mm) to isolate the radiopharmaceutical macroaggregates.
The rat model of in vivo tumor growth was generated as follows. On day zero, 100,000 rat mammary cancer 13762F tumor cells were implanted in a volume of 0.15 ml into the right thigh muscle of Fischer 344 female rats weighing approximately 160 grams. […] YIMA was injected in a volume of 0.2 ml on days 3-7 after tumor implantation. Tumor sizes and body weights of the rats were monitored regularly (5 times a week) for several weeks, or until the tumors grew beyond 2.5 cm, at which time the rats were euthanized.

[1] = locoregional administration in rats

## [Cl][90Y]([Cl])[Cl] [YCl3, Yttrium-90 chloride]
1 mCi intratumoral on day 10 in 0.1-0.2 ml saline, FIG. 2
  tumor development: significantly suppressed
100 μCi intratumoral on day 10 in 0.1-0.2 ml saline, FIG. 2
  tumor growth: not significantly suppressed
200 μCi intratumoral on day 10 in 0.1-0.2 ml saline, FIG. 2
  tumor development: significantly suppressed
500 μCi intratumoral on day 10 in 0.1-0.2 ml saline, FIG. 2
  tumor development: significantly suppressed
FIG. 3, in 0.2-0.3 ml saline, YCl3 0.3, 0.6, 1.5 mCi, ^111In—Cl 0.6, 1.2, 2.4, 4.8 mCi, ^67Ga 0.6 mCi
  tumor growth: significantly suppressed tumor growth
FIG. 4, in 0.5 ml saline, YCl3 0.5, 1.0, 2.0 mCi, ^111In—Cl 1.0, 4.0 mCi, FDG 1.0, 2.0, 3.0 mCi, ^67Ga—Fe 1.77 mCi
  tumor growth: significantly suppressed tumor growth
At least 200 μCi intratumoral, FIG. 2
  tumor growth: clearly suppressed
[1]
  dose equivalent for humans at which mortality occurred: 350 mCi/70 Kg
  lowest dose with consistently observed local tumor suppression effects: 0.2 mCi
rats, sporadically, at high dose equivalents for humans (e.g., 350 mCi/70 Kg)
  mortality after locoregional administration: some mortality was observed
